# Literature values in paper PMC5613053 (Investigational New Drugs, 2017).
# Tests used:
# MV4–11-luc cells = tested on: MV4–11-luc cells; set-up: method as in PMID 24046014; conditions: maximum tolerated dose; cited from earlier work
# MV4–11 cells = conditions: read-out: Concentration inhibiting growth of MV4–11 cells; cited from earlier work
compound,measurement,setting,value
CC1(COc2ccc3c(c2)ncn3-c2ccc3cccc(N4CCC(N)CC4)c3n2)COC1 [crenolanib],Efficacy in xenograft model,MV4–11-luc cells,limited efficacy
same,IC50,MV4–11 cells,1.3 nM
